According to patent publication US20250296951A1, “GPX4 Inhibitors and Senolytic Compounds and Uses Thereof” (Rubedo Life Sciences, Inc., priority 2024, published 2025):

What was measured:
Assay type in all cases: cell-based
[1] = test system: senescent A549 cells; test: Senescence assay, viability of senescent A549 cells; conditions: Homo sapiens; chemotherapy-induced senescent A549 cells, 24-72 hours with compound, viability by CellTiter-Glo or XTT; read-out: A549_SEN IC50 (Absolute IC50 average)
Description: (§1) Cells were maintained in DMEM media (high glucose, 4 mM L-glutamine, no sodium pyruvate) supplemented with 10% fetal bovine serum in a humidified incubator at 37° C. with 5% carbon dioxide. Senescence was induced via treatment with a sublethal concentration of chemotherapy (bleomycin, gemcitabine, doxorubicin, 5-fluorouridine), followed by a rest period without chemotherapy similarly to what is reported by others in the field (e.g., Aoshiba et al., 2003 Eur Respir J 22:436-443). Senescence was qualified by low EdU (5-ethynyl-2′-deoxyuridine) incorporation and high SA-β-Gal (senescence-associated beta-galactosidase) staining compared to proliferating untreated cells. Senescent cells were plated into 96-well plates at a density of 5-15,000 cells/well. The next day, compounds were added in duplicate across ten different concentrations spanning roughly four Log 10 units. Cells were incubated with the compounds for 24-72 hours, at which point viability is quantified using CellTiter-Glo (Promega) or XTT (R&D Systems). The viability for treated cells was determined relative to untreated control cells. The log of the compound concentration vs. normalized mean viability was a fit to a four parameters Hill function with variable slope. The bottom was constrained to be greater than zero. The X mean value for Y=50 interpolated to determine the absolute IC50. […]

[2] = test system: senescent NHDF cells; test: Senescence assay, viability of senescent NHDF cells; conditions: Homo sapiens; chemotherapy-induced senescent NHDF cells, 24-72 hours with compound, viability by CellTiter-Glo or XTT; read-out: NHDF_SEN IC50 (Absolute IC50 average)
Description: as §1

[3] = test system: senescent IMR90 cells; test: Senescence assay, viability of senescent IMR90 cells; conditions: Homo sapiens, IMR-90; chemotherapy-induced senescent IMR90 cells, 24-72 hours with compound, viability by CellTiter-Glo or XTT; read-out: IMR90_SEN IC50 (Absolute IC50 average)
Description: as §1

[4] = test system: senescent HEPG2 cells; test: Senescence assay, viability of senescent HEPG2 cells; conditions: Homo sapiens; chemotherapy-induced senescent HEPG2 cells, 24-72 hours with compound, viability by CellTiter-Glo or XTT; read-out: HEPG2_SEN IC50 (Absolute IC50 average)
Description: as §1

Row | IC50 [1] | IC50 [4] | Structure (SMILES) | IC50 [2] | IC50 [3]
1 | 1000 to 10000 nM | 100 to 1000 nM | C#CC(F)(F)[C@]1(O)CC[C@H]2[C@@H]3CCC4=CC(=O)CCC4=C3[C@@H](c3ccc(O)cc3)C[C@@]21C [Compound 1, (1S,3aS,3bS,10R,11aS)-1-(1,1-difluoroprop-2-yn-1-yl)-1-hydroxy-10-(4-hydroxyphenyl)-11a-methyl-2H,3H,3aH,3bH,4H,5H,8H,9H,10H,11H-cyclopenta[a]phenanthren-7-one] | 100 to 1000 nM | 100 to 1000 nM
2 | – | – | C#CC(=O)[C@]1(O)CC[C@H]2[C@@H]3CCC4=CC(=O)CCC4=C3[C@@H](c3ccc(C4CC4)cc3)C[C@@]21C [Compound 2, (8S,11R,13S,14S,17S)-11-(4-cyclopropylphenyl)-17-hydroxy-13-methyl-17-propioloyl-1,2,6,7,8,11,12,13,14,15,16,17-dodecahydro-3H-cyclopenta[a]phenanthren-3-one] | 1000 to 10000 nM | –
